# Structures can show the parent of a compound that is named as a salt.
# What was measured:
# Assay type in all cases: cell-based, human
# ImaR cells [1] = experiment: western blot of apoptosis and autophagy markers, ImaR cells; details: 24 hours; for expression of p62/SQSTM1: AICAR 1 mM, 82, 86, 112 at 2.5 μM, 15, 23, 191 at 10 μM; for LC3 cleavage (LC3-I into LC3-II): AICAR 1 mM, 82, 86 at 2.5 μM, 15, 23, 191, 49 at 10 μM
# Procedure: (§1) The cells are lyzed and 35 μg of proteins are separated by SDS-PAGE (12 or 14% polyacrylamide gel) and analyzed by western blot with antibodies specific to each of the markers.
# K562 cells [2] = experiment: cell viability (XTT) of imatinib-sensitive K562 cells; details: for efficacy in dose-response experiment (number of viable cells): 5, 10, 25 and 50 μM, compounds effective at concentrations as low as 5 μM; for viability at 500 µM: 24 hours, read-out: percentage of viable cells; for viability at 500 µM / IC50: XTT; for IC50: dose-response 5, 10, 25 and 50 μM, Example 1 (Table 1 codes)
# Procedure: (§2) The K562 leukemic cell line is obtained from the pleural effusion of a patient with CML. This line is a good model for studying this disease. […] The K562 and ImaR cells are cultivated at 37° C. under 5% CO2 in an RPMI 1640 medium containing 5% fetal bovine serum and supplemented with sodium pyruvate and antibiotics (penicillin-streptomycin).
# (§3) FIGS. 1 to 4 reflect the study of the cell viability.
# (§4) After the addition of XTT reagent, the absorbance is measured at 490 nm.
# as §4, §4
# After adding XTT reagent, the absorbance is measured at 490 nm.
# mTOR pathway [3] = experiment: western blot of 4E-BP1 phosphorylation (mTOR pathway), ImaR cells; details: 24 hours, imatinib 3 μM, AICAR 1 mM, 82, 112 at 2.5 μM, 15, 23, 191 at 10 μM
# Procedure: (§5) The cells are lyzed and 30 μg of proteins are separated by SDS-PAGE (13% polyacrylamide gel) and analyzed by western blot with an antibody specific to the 4E-BP1 protein. The delayed gel migration observed reflects the level of phosphorylation of 4E-BP1.
# caspase-3 [4] = experiment: caspase-3 activity (Ac-DEVD-AMC) in ImaR cells; details: 24 hours, imatinib 3 μM, AICAR 1 mM, 112 at 2.5 μM, 15, 23, 49 at 10 μM
# Procedure: (§6) The cells are lyzed and 10 μg of proteins are placed in the presence of Ac-DEVD-AMC in a 96-well plate. The fluorescence emission at 460 nm resulting from the release of AMC is then recorded.
# cathepsin-B [5] = experiment: cathepsin-B activity (z-RR-AMC) in ImaR cells; details: 24 hours, AICAR 1 mM, 82, 112 at 2.5 μM, 15, 23, 191 at 10 μM
# Procedure: (§7) The cells are lyzed and 5 μg of proteins are placed in the presence of z-RR-AMC in a 96-well plate. The fluorescence emission at 460 nm resulting from the release of AMC is then recorded.
# K562 cells [6] = experiment: western blot of apoptosis and autophagy markers, K562 cells; details: for expression of p62/SQSTM1: 82, 86, 112 at 2.5 μM, 15, 23, 191 at 10 μM; for LC3 cleavage (LC3-I into LC3-II): 82, 86 at 2.5 μM, 15, 23, 191, 49 at 10 μM; for type of programmed cell death induced: conclusion of Example 1, K562 and ImaR cells
# Procedure: as §1
# mTOR pathway [7] = experiment: western blot of 4E-BP1 phosphorylation (mTOR pathway), K562 cells; details: 24 hours, imatinib 3 μM, AICAR 1 mM, 82, 112 at 2.5 μM, 15, 23, 191 at 10 μM
# Procedure: as §5
# cathepsin-B [8] = experiment: cathepsin-B activity (z-RR-AMC) in K562 cells; details: 24 hours, AICAR 1 mM, 82, 112 at 2.5 μM, 15, 23, 191 at 10 μM
# Procedure: as §7
# caspase-3 [9] = experiment: caspase-3 activity (Ac-DEVD-AMC) in K562 cells; details: 24 hours, imatinib 3 μM, AICAR 1 mM, 112 at 2.5 μM, 15, 23, 49 at 10 μM
# Procedure: as §6
# ImaR cells [10] = experiment: cell viability (XTT) of imatinib-resistant ImaR cells; details: for efficacy in dose-response experiment (number of viable cells): 5, 10, 25 and 50 μM, compounds effective at concentrations as low as 5 μM; for viability at 500 µM / IC50: Homo sapiens, XTT; for viability at 500 µM: 24 hours, read-out: percentage of viable cells; for IC50: dose-response 5, 10, 25 and 50 μM, Example 1 (Table 1 codes)
# Procedure: as §2, §3, §4, §4
# caspase-9 [11] = experiment: caspase-9 activity (Ac-LEHD-AMC) in K562 cells
# Procedure: (§8) The cells are lyzed and the caspase-9 activities are measured using 10 μg of proteins and Ac-LEHD-AMC. The fluorescence emission at 460 nm resulting from the release of AMC is then recorded.
# K562 cells [12] = experiment: flow cytometry analysis of the cell cycle, K562 cells; details: for proportion of cells in the G2/M phase: 24 hours, 82, 86, 112 at 2.5 μM, 15, 23, 191, 49 at 10 μM; for cells in phase G0/G1 / cells in the subG1 phase: 24 hours, imatinib 3 μM, 112 at 2.5 μM, 15, 23, 49 at 10 μM
# Procedure: (§9) The x-axis of the graph of FIG. 9 corresponds to the quantity of DNA marked with propidium iodide while the y-axis corresponds to the number of cells. […] The nuclei are marked with propidium iodide, then the proportion of cells in the different phases of the cell cycle (subG1, G0/G1, S, G2/M) is determined.
# ImaR cells [13] = experiment: flow cytometry analysis of the cell cycle, ImaR cells; details: for proportion of cells in the G2/M phase: 24 hours, 82, 86, 112 at 2.5 μM, 15, 23, 191, 49 at 10 μM; for cells in phase G0/G1 / cells in the subG1 phase: 24 hours, imatinib 3 μM, 112 at 2.5 μM, 15, 23, 49 at 10 μM
# Procedure: as §9, with “nucleii” for “nuclei”
# caspase-9 [14] = experiment: caspase-9 activity (Ac-LEHD-AMC) in ImaR cells; details: 24 hours, imatinib 3 μM, 112 2.5 μM, 15 and 23 10 μM
# Procedure: as §8
# [15] = AICAR 1 mM, compounds 2.5 or 10 μM
# [16] = K562, 24 hours, AICAR 1 mM, compounds 2.5 or 10 μM
# [17] = Homo sapiens, K562, 24 or 48 hours
Compound,IC50 (K562 cells [2]; [17]) [µM],expression of p62/SQSTM1 (ImaR cells [1]),LC3 cleavage (LC3-I into LC3-II) (ImaR cells [1]),efficacy in dose-response experiment (number of viable cells) (K562 cells [2]; K562),phosphorylation of 4E-BP1 (mTOR pathway [3]),increase in the caspase-3 activity (factor with respect to the control) (caspase-3 [4]),increase in the cathepsin-B activity (factor) (cathepsin-B [5]),"expression of p62/SQSTM1 (K562 cells [6]; K562, 24 hours, AICAR 1 mM)","LC3 cleavage (LC3-I into LC3-II) (K562 cells [6]; K562, 24 hours, AICAR 1 mM)",phosphorylation of 4E-BP1 (mTOR pathway [7]),increase in the cathepsin-B activity (factor) (cathepsin-B [8]),efficacy in dose-response experiment (number of viable cells) (ImaR cells [10]),"viability at 500 µM (K562 cells [2]; Homo sapiens, K562, 0.5 mM) [%]",type of programmed cell death induced (K562 cells [6]),proportion of cells in the G2/M phase (K562 cells [12]),cells in phase G0/G1 (K562 cells [12]),cells in the subG1 phase (K562 cells [12]),proportion of cells in the G2/M phase (ImaR cells [13]),viability at 500 µM (ImaR cells [10]; 0.5 mM) [%],IC50 (ImaR cells [10]; 24 or 48 hours) [µM],also measured
"NC(=O)c1ncn([C@@H]2O[C@H](CO)[C@@H](O)[C@H]2O)c1N [AICAR, 5-aminoimidazole-4-carboxamide-1-β-D-ribofuranoside, reference compound]",,increase in the expression,cleaved,ineffective,total reduction,incapable of inducing this activation,increase,increase in the expression,cleaved,total reduction,increase,ineffective,,,,,,,,,"AMPK activation (level of phosphorylation) (ImaR cells [1]; [15]): activated; mTOR pathway: phosphorylation of the ribosomal protein S6 (ImaR cells [1]; [15]): massive dephosphorylation; reduction in cell viability (K562 cells [2]; K562, 0.5 mM, 24 or 48 hours, Example 1): cell viability loss; AMPK activation (level of phosphorylation) (K562 cells [6]; [16]): activated; mTOR pathway: phosphorylation of the ribosomal protein S6 (K562 cells [6]; [16]): massive dephosphorylation; increase in the caspase-3 activity (factor with respect to the control) (caspase-3 [9]): incapable of inducing this activation; reduction in cell viability (ImaR cells [10]; 0.5 mM, 24 or 48 hours, Example 1): cell viability loss"
"Cc1ccc(NC(=O)c2ccc(CN3CCN(C)CC3)cc2)cc1Nc1nccc(-c2cccnc2)n1 [imatinib, imatinib mesylate, reference compound]",,,,,,,,,,totally inhibits,,,,,,increase,small fraction of cells is also accumulated,,,,"cytotoxicity at 1 µM (K562 cells [2]; Homo sapiens, K562, 48 h, read-out: cell viability loss): > 50%; caspase-9 activity (caspase-9 [14]): not the case; caspase-9 activity (caspase-9 [11]; K562, 24 hours, imatinib 3 μM, 112 2.5 μM, 15 and 23 10 μM): strong increase; cells in phase G0/G1 (ImaR cells [13]): not observed; cells in the subG1 phase (ImaR cells [13]): not observed; cell viability (ImaR cells [10]; imatinib 1 μM, 48 hours): affected only slightly"

# The next lines start with results.
IC50 (K562 cells [2]; [17]) [µM],Compound,expression of p62/SQSTM1 (ImaR cells [1]),LC3 cleavage (LC3-I into LC3-II) (ImaR cells [1]),efficacy in dose-response experiment (number of viable cells) (K562 cells [2]; K562),phosphorylation of 4E-BP1 (mTOR pathway [3]),increase in the caspase-3 activity (factor with respect to the control) (caspase-3 [4]),increase in the cathepsin-B activity (factor) (cathepsin-B [5]),"expression of p62/SQSTM1 (K562 cells [6]; K562, 24 hours, AICAR 1 mM)","LC3 cleavage (LC3-I into LC3-II) (K562 cells [6]; K562, 24 hours, AICAR 1 mM)",phosphorylation of 4E-BP1 (mTOR pathway [7]),increase in the cathepsin-B activity (factor) (cathepsin-B [8]),efficacy in dose-response experiment (number of viable cells) (ImaR cells [10]),"viability at 500 µM (K562 cells [2]; Homo sapiens, K562, 0.5 mM) [%]",type of programmed cell death induced (K562 cells [6]),proportion of cells in the G2/M phase (K562 cells [12]),cells in phase G0/G1 (K562 cells [12]),cells in the subG1 phase (K562 cells [12]),proportion of cells in the G2/M phase (ImaR cells [13]),viability at 500 µM (ImaR cells [10]; 0.5 mM) [%],IC50 (ImaR cells [10]; 24 or 48 hours) [µM],also measured
~10,"CCOC(=O)C#Cc1c(C(=O)OCC)nnn1[C@@H]1O[C@H](COC(C)=O)[C@@H](OC(C)=O)[C@H]1OC(C)=O [Compound 49, 1′-(4-ethoxycarbonyl-5-ethyl propiolate-[1,2,3]-triazol-1-yl)-2′,3′,5′-tri-O-acetyl-β-D-ribofuranose]",,cleaved,particularly effective,,increase,,,cleaved,,,particularly effective,< 10,combination of the two types of mechanisms,increase,reduction,very pronounced accumulation,increase,< 10,~10,"PARP cleavage (fragment at 85 kDa) (ImaR cells [1]; imatinib 3 μM, 112 at 2.5 μM, 15, 23, 49 at 10 μM): appearance of the characteristic cleavage fragment at 85 kDa; pathway relaying the induced apoptosis (caspase-9 [11]; conclusion of Example 1, K562 and ImaR cells): intrinsic pathway; PARP cleavage (fragment at 85 kDa) (K562 cells [6]; K562, 24 hours, imatinib 3 μM, 112 at 2.5 μM, 15, 23, 49 at 10 μM): appearance of the characteristic cleavage fragment at 85 kDa; cells in phase G0/G1 (ImaR cells [13]): reduction; cells in the subG1 phase (ImaR cells [13]): very pronounced accumulation"
~2.5,"CCOC(=O)c1nnn([C@@H]2O[C@H](COC(C)=O)[C@@H](OC(C)=O)[C@H]2OC(C)=O)c1-c1cccs1 [Compound 82, 1′-(4-ethoxycarbonyl-5-(2-thienyl)-[1,2,3]-triazol-1-yl)-2′,3′,5′-tri-O-acetyl-β-D-ribofuranose]",increase in the expression,cleaved,particularly effective,total reduction,,around 2,increase in the expression,cleaved,total reduction,around 2,particularly effective,< 10,autophagy alone,increase,,,increase,< 10,~2.5,
~10,"CCOC(=O)c1nnn(C2OC(COC(C)=O)C(OC(C)=O)C(OC(C)=O)C2OC(C)=O)c1I [Compound 191, 1′-(4-ethoxycarbonyl-5-iodo-[1,2,3]-triazol-1-yl)-2′,3′,4′,6′-tetra-O-acetyl-β-D-glucopyranose]",increase in the expression,cleaved,particularly effective,,,around 2,increase in the expression,cleaved,,around 2,particularly effective,< 10,autophagy alone,,,,,< 10,~10,
